Structures can show the parent of a compound that is named as a salt. Marks after values point to notes of the source that are not given here.
Tests used:
[1] = tested on: mice cough induced by ammonia water; assay: Antitussive test, cough induced by ammonia water in mice; type: in vivo, ICR mice
Experimental: Animals: male ICR mice; Drugs and reagents: dextromethorphan hydrobromide, ammonia water, 0.2% CMC-Na, protein BD-10; Apparatus: Compressed nebulizer (403T type), balance (XS105DU type). Experiment grouping: • Solvent control group; • Dextromethorphan 15 mg/kg group; • Protein BD-10, 20 mg/kg group, 50 mg/kg group.
Dextromethorphan and different doses of protein BD-10 (administration volume 10 ml/kg) were given orally in groups, and the solvent control group was given the same volume of distilled water. One hour later, mice were put into a sealed box and atomized 10% ammonia water for 10 seconds, and then observed and recorded the incubation period of cough in mice and the number of coughs in 2 minutes.
Record the time point of oral administration, the time point of atomization experiment, the incubation period of mice cough and the number of coughs within 2 minutes, respectively. The incubation period of cough refers to the number of seconds from the start of the atomization of ammonia to the occurrence of cough. The performance of coughing in mice is based on contraction of their abdominal muscles (breast contraction) and opening their mouths at the same time. Calculate the mean and standard error of each group of data, and use TTEST to compare the model group with other groups, and P<0.05 is considered as a significant difference.

[2] = tested on: lipopolysaccharide (LPS) induced fever in SD rats; assay: Lipopolysaccharide (LPS) induced fever model in SD rats; type: in vivo; conditions: aspirin 300 mg/kg oral
Experimental: Animals: 230-260 grams of male SD rats; Drugs: lipopolysaccharide (LPS, SIGMA L-2880), aspirin (SIGMA A2093), protein BD-10; Instruments: electronic balance (SARTORIUS BP121S type), electronic clinical thermometer (CITIZEN CT-513W type).
Method: the method of intraperitoneal injection of Lipopolysaccharide to replicate rat fever model.
(§1) Preparation of experimental animals: After the experimental animals adapt to the experimental environment (temperature 22° C.±2° C., relative humidity 50%±2%) for 1 day. Pre-adaptation to measure rectal temperature at 8:00 and 15:00, rats were fasted and water was taken freely 12 h before experiment, and let the animal to empty its feces before measuring the rectal temperature. Apply petroleum jelly to the electronic thermometer probe before each temperature measurement. Insert the rat rectum 2 cm (can be marked at 2 cm to ensure that the depth of each insertion is consistent), and record the body temperature after the reading is stable.
Intraperitoneal injection of lipopolysaccharide to replicate rat fever model: The body temperature of the rats was measured before modeling. Qualified rats with a body temperature of 36.2-37.3° C. were selected and randomly divided into groups with 8 rats in each group. After oral administration of aspirin and different doses of protein BD-10, lipopolysaccharide (20 μg/kg, 2 ml/kg) was injected intraperitoneally immediately, and the normal control group was injected intraperitoneally with an equal volume of normal saline. The body temperatures of the rats were monitored after 2 hours for a total of 8 hours.
(§2) According to the body temperature measured at each time point on the day of the experiment, calculate the mean, standard deviation and standard error of the body temperature of each group of rats. The data of each group was compared with TTEST, and P<0.05 was considered as a significant difference.

[3] = tested on: yeast-induced fever model in rats; assay: Yeast-induced fever model in SD rats; type: in vivo; conditions: aspirin 300 mg/kg oral
Experimental: Animals: 230-260 grams of male SD rats; Medicines: yeast (OXOID LP0021), aspirin (SIGMA A2093), protein BD-10; Instruments: electronic balance (SARTORIUS BP121S type), electronic clinical thermometer (CITIZEN CT-513W type). Experiment grouping: • Normal control group; • Model group: yeast fever model; • Positive control group: Aspirin 300 mg/kg group; • Protein BD-10, 10 mg/kg group, 50 mg/kg group.
as §1
Subcutaneous injection of dry yeast to replicate rat fever model: The body temperature of the rats was measured before modeling. Qualified rats with a body temperature of 36.2-37.3° C. were selected and randomly divided into groups with 8 rats in each group. After oral administration of aspirin and different doses of protein BD-10, 20% yeast suspension (10 ml/kg) was injected subcutaneously immediately, and the normal control group was injected intraperitoneally with an equal volume of normal saline. The body temperatures of the rats were monitored after 2 hours for a total of 8 hours.
as §2

[4] = tested on: acetic acid writhing of ICR mice; assay: Acetic acid writhing test in ICR mice; type: in vivo
Experimental: Animals: male ICR mice; Drugs and reagents: aspirin, physiological saline, glacial acetic acid, protein BD-10. Experiment grouping: • Model group; • Aspirin 300 mg/kg group; • Protein BD-10, 50 mg/kg group, 200 mg/kg group.
One day after the experimental animals adapt to the environment, Aspirin 300 mg/kg, protein BD-10 50 mg/kg, 200 mg/kg were given orally one hour in advance, and the administration volume was 10 ml/kg; Then, 0.6% acetic acid solution was injected intraperitoneally, and the incubation period (seconds) and frequency of writhing in the animal was observed within 15 minutes.
Calculate the mean and standard error of the data in each group. Compared with the model group by TTEST, P<0.05 was considered as statistically different.

[5] = tested on: PLO-induced epilepsy in mice; assay: Pilocarpine (PLO) induced convulsive epilepsy in mice; type: in vivo, ICR mice; parameters: mortality rate: unit not given here; conditions: Diazepam 2 mg/kg, PLO 225 mg/kg i.p.
Experimental: Animals: male ICR mice; Drugs: Pilocarpine HCl (PLO, pilocarpine, pilocarpine hydrochloride), Diazepam (diazepam tablets), protein BD-10.
Experiment grouping: • Model group: • Diazepam 2 mg/kg group; • Protein BD-10, 50 mg/kg group, 200 mg/kg group.
The drug was administered once in the afternoon the day before modeling, PLO-225 mg/kg (modeling agent) was injected intraperitoneally 1 hour after the test drug was administered intragastrically on the day of modeling. And positive drug can be administered once 20 minutes before modeling. Observe for 30 minutes after PLO injection.
Observation indicators: (1)Seizure situation: the time of seizures from Grade II to Grade IV; (2)the time to death.
(§3) Seizure grade: Refer to Racine grading standard: Grade 0: No response; Grade I: manifested as twitching of facial muscles or the corners of the mouth; Grade II: can nod; Grade III: twitching of one limb; Grade IV: rigidity or body twitching; Grade V: generalized epilepsy (generalized tonic seizures).
Count the number of Grade IV seizures and deaths in each group of mice in the experiment; Grade II, III and IV incubation period. […] Chi-square test was used for statistics of the number of cases. The mean value and standard error of the incubation period were calculated, and TTEST was used to compare the model group with other groups. P<0.05 was considered as a significant difference.

[6] = tested on: PTZ-induced epilepsy in mice; assay: Pentylenetetrazole (PTZ) induced epilepsy in mice; type: in vivo, ICR mice; conditions: Retigabine 60 mg/kg, PTZ 65 mg/kg i.p.
Experimental: Medicines: Pentylenetetrazol (PTZ), Retigabine, Protein BD-10.
Experiment grouping: • Model group; • Retigabine 60 mg/kg group; • Protein BD-10, 50 mg/kg group, 200 mg/kg group;
The drug was administered once in the afternoon the day before modeling, On the day of modeling, PTZ-65 mg/kg (modeling agent) was injected intraperitoneal 1 hour after the test drug was administered intragastrically, and the positive drug can be administered once half an hour before modeling. Continue to observe for 15 minutes after injection of PTZ.
Observation index: (1)Seizure situation: the time of seizures from Grade III to Grade VI; (2)Death situation
as §3
Count the cases of seizures and deaths in each group of mice in the experiment; Grade III and IV incubation period. The incubation period of mice that have not attacked to Grade IV is recorded as the maximum of 900 seconds. Chi-square test was used for statistics of the number of cases. Calculate the mean and standard error of the incubation period. Use TTEST to compare the model group with other groups, and P<0.05 is considered as a significant difference.

[7] = 2, 4, 6 and 8 hours after modeling, vs model group P<0.05
[8] = 20% yeast suspension 10 ml/kg s.c., SD rats
[9] = aspirin 300 mg/kg oral one hour before 0.6% acetic acid i.p., observed within 15 minutes

SMILES: COc1ccc2c(c1)[C@]13CCCC[C@@H]1[C@H](C2)N(C)CC3 [Dextromethorphan, dextromethorphan hydrobromide, reference compound]
- Incubation period (cough) ([1]; Dextromethorphan 15 mg/kg oral, 10% ammonia water atomized 10 seconds one hour later, X ± SEM): 38.4 ± 4.5 s
- Number of coughs ([1]; Dextromethorphan 15 mg/kg oral, 10% ammonia water atomized 10 seconds one hour later, coughs within 2 minutes, X ± SEM): 34.0 ± 2.9
- Effect on incubation period and number of coughs (in words) ([1]; dextromethorphan 15 mg/kg group, vs solvent control group P<0.05): significant improvement

SMILES: CC(=O)Oc1ccccc1C(=O)O [aspirin, reference compound]
- Effect on body temperature of model rats (in words) [2, 7]: can effectively inhibit the increase in body temperature
- Body temperature 2 hours after modeling ([2]; LPS 20 μg/kg i.p., SD rats): 36.8 ± 0.1 °C
- Body temperature 4 hours after modeling ([2]; LPS 20 μg/kg i.p., SD rats): 36.9 ± 0.2 °C
- Body temperature 6 hours after modeling ([2]; LPS 20 μg/kg i.p., SD rats): 36.8 ± 0.2 °C
- Body temperature 8 hours after modeling ([2]; LPS 20 μg/kg i.p., SD rats): 36.9 ± 0.1 °C
- Effect on body temperature of model rats (in words) [3, 7]: can effectively inhibit the increase in body temperature
- Body temperature 2 hours after modeling [3, 8]: 37.0 ± 0.1 °C
- Body temperature 4 hours after modeling [3, 8]: 37.0 ± 0.1 °C
- Body temperature 6 hours after modeling [3, 8]: 37.0 ± 0.1 °C
- Body temperature 8 hours after modeling [3, 8]: 37.0 ± 0.1 °C
- Effect on writhing incubation period and times of writhing (in words) ([4]; Aspirin 300 mg/kg, vs model group P<0.05): can significantly delay the incubation period of writhing and reduce the times of writhing
- Frequency of writhing [4, 9]: 15.2 ± 2.9 times
- Writhing incubation period [4, 9]: 290.3 ± 37.0 s

SMILES: CN1C(=O)CN=C(c2ccccc2)c2cc(Cl)ccc21 [Diazepam, reference compound]
- Grade IV seizure rate ([5]; 10 mice): 0** %
- mortality rate ([5]; 10 mice): 0
- Grade II seizure incubation period ([5]; mean ± SEM): 109 ± 8 s
- Grade III seizure incubation period ([5]; mean ± SEM): 182 ± 14 s
- Grade IV seizure incubation period ([5]; mean ± SEM, mice not reaching Grade IV recorded as maximum 1800 seconds): 1800 ± 0 s
- Cases of deaths ([5]; of 10 mice): 0
- Cases of Grade IV ([5]; of 10 mice, 30 minutes observation): 0**

SMILES: CCOC(=O)Nc1ccc(NCc2ccc(F)cc2)cc1N [Retigabine, reference compound]
- Grade IV seizure rate ([6]; 10 mice): 20%**
- mortality rate ([6]; 10 mice): 0%
- Grade III seizure incubation period ([6]; mean ± SEM): 83 ± 7 s
- Grade IV seizure incubation period ([6]; mean ± SEM, mice not reaching Grade IV recorded as maximum 900 seconds): 745 ± 103 s
- Cases of deaths ([6]; of 10 mice): 0
- Cases of Grade IV ([6]; of 10 mice, 15 minutes observation): 2**

Source: US20230146533A1, “KERATIN BD-10, PREPARATION METHOD THEREFOR AND PHARMACEUTICAL COMPOSITION AND USE THEREOF” (INSTITUTE OF MATERIA MEDICA, CHINESE ACADEMY OF MEDICAL …, priority 2019, published 2023)
